Experimental data as given in patent US20190290621A1, “COMPOSITIONS AND METHODS FOR TREATING HIV-1 LATENCY” (priority 2017, published 2019).

Experiments:
[1] = tested on: Class II HDAC; test: Western blot for acetylated tubulin as a measure of Class II HDAC inhibition; assay type: cell-based; conditions: Jurkat cells and primary resting CD4+ T-cells, 8 hours
[2] = tested on: Class I HDAC; test: Western blot for acetylated histone H3 as a measure of Class I HDAC inhibition; assay type: cell-based; conditions: Jurkat cells and primary resting CD4+ T-cells, 8 hours
[3] = tested on: HIV-1 LTR; test: ChIP assay of acetylated histone H3 at the HIV-1 LTR; assay type: cell-based; conditions: JLAT10.6 cells, 6 hours, HIV-1 LTR qPCR
Protocol: Since histone H3 is […] by Class I HDACs and known to bind to the HIV LTR promoter, we determined H3 acetylation status of the HIV-1 LTR in JLAT10.6 cells. […] The ChIP assay was performed using a ChIP kit (ab500) (Abcam; Cambridge, Mass.). Briefly, an anti-rabbit IgG (Cell Signaling Technologies; Danvers, Mass.) was used as an isotype control. Actin was used as an internal control. Total chromatin (input) and the immunoprecipitated chromatin were used as templates and HIV-1 LTR was amplified by quantitative PCR using HIV-1 LTR (forward: 5-[…] […]-3, reverse: 5-TAG […] A-3) and actin primers. Using ChIP, we recovered 15% of the DNA from SDL148-treated cells using anti-acetylated histone H3 antibody compared to less than 5% recovery with DMSO-treated cells, and less than 1% from the IgG-negative controls. […] An alternative mechanism is modulation of lysines in Tat that impact its ability to interact with TAR of the HIV-1 LTR (37-39).

[4] = tested on: HIV Gag; test: Western blot for HIV Gag in JLAT10.6 cells; assay type: cell-based; conditions: 24 h
[5] = biological target: HDAC3 (Homo sapiens, UniProt O15379); conditions: cited from earlier work
Chain of HDAC3 (O15379 whole entry): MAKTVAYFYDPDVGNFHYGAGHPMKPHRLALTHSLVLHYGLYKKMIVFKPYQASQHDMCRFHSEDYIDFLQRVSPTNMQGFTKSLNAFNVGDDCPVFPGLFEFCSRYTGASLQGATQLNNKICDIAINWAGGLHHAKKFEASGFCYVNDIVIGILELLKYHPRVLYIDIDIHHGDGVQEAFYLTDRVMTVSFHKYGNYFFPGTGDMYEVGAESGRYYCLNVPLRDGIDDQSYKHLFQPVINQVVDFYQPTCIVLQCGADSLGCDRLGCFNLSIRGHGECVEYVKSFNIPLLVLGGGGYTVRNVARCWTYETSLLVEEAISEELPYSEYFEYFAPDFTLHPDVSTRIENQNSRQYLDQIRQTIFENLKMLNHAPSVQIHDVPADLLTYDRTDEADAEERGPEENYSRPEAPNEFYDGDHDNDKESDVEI
Chain of HDAC3 (Q9Y618 395-489 partner limits assumed): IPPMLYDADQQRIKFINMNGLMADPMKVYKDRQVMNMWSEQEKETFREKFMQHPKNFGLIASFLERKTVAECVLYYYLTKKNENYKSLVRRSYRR

[6] = tested on: JLAT10.6 cells; test: HIV-1 latency reactivation screen in JLAT10.6 cells (GFP by FACS); assay type: cell-based
Protocol: For screening purposes, JLAT10.6 cells, a T-cell line that has been widely used for HIV-1 reactivation studies (32-34) were utilized. In this cell line, HIV-1Δenv from the NL4-3 backbone with GFP replacing the Nef gene is stably integrated into the genome and is expressed at undetectable levels. Upon HIV reactivation with latency reversing agents (LRAs), viral production leads to expression of GFP that was measured by fluorescent activation cell sorting (FACS) analysis using a Becton Dickinson FACS machine. Analysis was performed using BD […] PRO software (BD Biosciences; Franklin Lakes, N.J.). The stronger the HIV reactivation, the higher the percentage of GFP-positive cells observed. JLAT10.6 cells were incubated with HDAC inhibitors at concentrations of 1 and 10 μM for 24 hours, using TNF-α and SAHA (Vorinostat) as positive controls.

[7] = mice; cited from earlier work

Compound	acetylation of tubulin [1]	histone H3 acetylation [2]	DNA recovered using anti-acetylated histone H3 antibody [3]	expression of HIV Gag [4]	potency against HDAC3 [5]	reactivation of HIV expression at 100 nM ([6]; 100 nM)	potency in reactivating HIV from latency compared with vorinostat ([6]; 1 and 10 μM, 24 hours)	EC50 ([6]; read-out: EC50 to reactivate HIV from latency)	bioavailability [7]
O=C(CCCCCCC(=O)Nc1ccccc1)NO [SAHA, suberoylanilide hydroxamic acid]	enhanced the acetylation of both histone H3 and tubulin	enhanced the acetylation of both histone H3 and tubulin							
largazole [SDL148]			15%	enhanced expression of HIV Gag	picomolar range	the only compound able to reactivate HIV expression significantly	comparable or more potent than vorinostat	150 nM	excellent bioavailability
